{
  "source": "patent US10278971B2",
  "about": "“Fluorocyclopentenylcytosine methods of use” (Rexahn Pharmaceuticals, Inc., priority 2015, dated 2019)",
  "type_in_all_cases": "cell-based, human",
  "key": {"SW1573 spheroids": {"tested_on": "SW1573 spheroids", "test": "Spheroid assay, radiosensitizing effect", "conditions": "SW1573 spheres", "experimental": "The NSCLC cell lines A549 and SW1573 were plated in low attachment 24 well plates (Corning Incorporated, Corning, N.Y.) at a density of 100,000 cells/well and allowed to form spheroids. After three days, single spheroids were transferred to new 24 well low attachment plates (one spheroid/well). Immediately after transfer treatment was started, for A549 and SW1573 cells 1 μM RX-3117 was combined with fractionated 2 Gy irradiation (5 days single 2 Gy dose). Pictures were taken on day 0 (before irradiation) and after 3, 6, 9, and 15 days using a phase contrast microscope (LeicaDMI300B Universal Grab 6.3 software, Digital Cell Imaging Labs). The measurements were taken by ImageJ software (ImageJ 1.45s, Wayne Rasband, National Institutes of Health, Bethesda, Md.) for spheroid volume calculation (V=4/3π(D/2)^3) as described earlier by Galvani et al. (Galvani E, Giovannetti E, Saccani F, Cavazzoni A, Leon L G, Dekker H, Alfieri R, Carmi C, Mor M, Ardizzoni A, Petronini P G and Peters G J: Molecular mechanisms underlying the antitumor activity of 3-aminopropanamide irreversible inhibitors of the epidermal growth factor receptor in non-small cell lung cancer. Neoplasia 15: 61-72, 2013)."}, "SW1573/G-": {"tested_on": "SW1573/G-", "test": "Cell cycle distribution by flow cytometry (PI)", "experimental": "The effect of RX-3117 on cell cycle regulation and cell death in human non-small cell lung cancer (NSCLC) cell lines A549 (adenocarcinoma), SW1573 (alveolar carcinoma) and SW1573/G- (SW1573 cell line resistant to gemcitabine) and H460 (large cell carcinoma) was assessed. The A549 and H460 cell lines were obtained from American Type Culture Collection (Manassas, Va., USA). The SW1573 cell line, obtained from Dr. Johan van Rijn (see Keiser et al., Cancer Research, 49:2988-2993 (1989)), also served as the parental cell line for SW1573/G-. A549, SW1573, and SW1573/G- and H460 were kept in exponential growth in T25 flasks (Greiner Bio-One GmbH, Frickenhausen, Germany) and cultured in Dulbecco's minimal essential medium (DMEM) or RPMI 1640 (A549) supplemented with 10% heat-inactivated fetal bovine serum (FBS) 1% streptomycin and penicillin 20 mM HEPES and maintained in 37° C. water saturated atmospheres of 5% CO2. […] The cells stained with the PI solution were analyzed by FACSCalibur™ (BD Biosciences, Mount View, Calif., USA). Data was analyzed with CellQuest™ Pro software.\nCell cycle distribution and apoptosis were analyzed by plating cells in flat bottom 6 well plates (Greiner Bio-One GmbH, Frickenhausen, Germany) at the density of 5,000 cells and allowed to attach for 24 h. […] Subsequently, samples were analyzed using FACSCalibur (BD Biosciences, Mount View, Calif., USA). […]"}, "A2780 cells": {"tested_on": "A2780 cells", "test": "Protein expression by western blot", "conditions": "A2780, 0.1 μM to 10 μM, 48 h", "experimental": "The influence of RX-3117 on protein expression during different treatment conditions was analyzed by western blot. Cells were lysed using 1× cell lysis buffer (Cell Signaling, Danvers, Mass., USA) containing 4% protease inhibitor cocktail (Roche Diagnostics, Mannheim, Germany) on ice for 30 minutes and centrifuged for 10 minutes at 4° C. at 14,000 rpm. Bio-Rad assay was performed to determine protein amount in the collected supernatant as described earlier (Lemos C, Kathmann I, Giovannetti E, Calhau C, Jansen G and Peters G J: Impact of cellular folate status and epidermal growth factor receptor expression on BCRP/ABCG2-mediated resistance to gefitinib and erlotinib. Br J Cancer 100: 1120-7, 2009). The following antibodies were used for protein expression: γH2A.X (cat#9718, Cell Signaling, 1:1000), β-actin (Sigma, 1:10,000), Cdc25C Ser216 (cat#4901, Cell Signaling, 1:1000), Cdk1 Tyr15 (cat#9111, Cell Signaling, 1:1000), […] (cat#2197S, Cell Signaling, 1:1000), Histone 3 (cat#4499, Cell Signaling). Antibodies were diluted in 1:1 solution with Rockland buffer (Rockland Inc, Philadelphia, Pa.) and phosphate buffered saline (PBS) supplemented with 0.05 Tween 20. Proteins were separated in 20% SDS-PAGE gel and transferred to polyvinylidene difluoride (PVDF) membrane. […] Proteins were detected by an Odyssey InfraRed Imager (Li-COR Bioscience, Lincoln, Nebr.)."}},
  "data": [
    {"smiles": "Nc1ccn([C@@H]2C(F)=C(CO)[C@@H](O)[C@H]2O)c(=O)n1", "note": "[RX-3117, 4-amino-1-((1S,4R,5S)-2-fluoro-4,5-dihydroxy-3-hydroxymethyl-cyclopent-2-enyl)-1H-pyrimidin-2-one]", "values": [
      {"measurement": "spheroid volume, combination with radiotherapy", "setting": "SW1573 spheroids; 1 μM plus 2 Gy 5 days", "result": "the effect was enhanced with the combination"},
      {"measurement": "spheroid volume, RX-3117 alone", "setting": "SW1573 spheroids; 1 μM, 15 days", "result": "highly affected"},
      {"measurement": "accumulation of cells in the G1 phase", "setting": "SW1573/G-; 1 μM, 24 hour exposure", "result": "induced accumulation"},
      {"measurement": "accumulation of cells in the S-phase", "setting": "SW1573/G-; 5×IC50, 24 and 48 hours", "result": "induced the accumulation"},
      {"measurement": "γH2A.X S139 induction", "setting": "A2780 cells", "result": "induction of γH2A.X S139 in a dose dependent manner"}
    ]}
  ]
}
